# Measured values taken from publication PMC7719179, “Small molecule inhibition of Dynamin-dependent endocytosis targets multiple niche signals and impairs leukemia stem cells” (Nature Communications, 2020).
# Where “and” joins values, the source holds several entries; their conditions need not be identical. Identical values can stand only once.
# Columns and labels:
# Lmo2^Tg DN3a thymocytes = experiment: Absolute numbers of co-cultured Lmo2^Tg DN3a thymocytes after in vitro treatment; assay type: cell-based, mouse; conditions: 72 h, Dynole 34-2 0.2 μM, Ruxolitinib 0.2 μM, DAPT 0.1 μM
# Protocol: Pre-leukemic and leukemic thymocytes were purified by flow cytometry and co-cultured on GFP-positive OP9 and OP9-DL1 stromal cell lines, as described previously. Thymocytes were co-cultured in reconstituted alpha-MEM medium (#12318, Gibco, Grand Island NY, USA) supplemented with 20% FCS (#12318), HEPES 10 mM (#15630-080), sodium pyruvate 1 mM (#11360-070), β-mercaptoethanol 55 μM (#21985-023), Glutamax 2 mM (#15750-060), 1% Penicillin/Streptomycin (#15140-122), 5 ng/mL rmFLT-3 ligand (#250-31 L, Pepro Tech), 5 ng/mL rmIL-7 (#217-17, Pepro Tech) and 25 ng/mL rmSCF (#250-03, Pepro Tech). […]
# [1] = tested on: Ba/F3-IL7R^Stat5-CA cells; experiment: Cytotoxic activity in IL-7-dependent and IL-7-independent Ba/F3-IL7R^Stat5-CA cells; assay type: cell-based, murine; conditions: for Survival (%) over survival at day 0, reported as 100%: Ba/F3-IL7R^Stat5-CA cells, dose = IC50 or LC50 of each drug; for sensitivity of Ba/F3-IL7R^Stat5-CA cells with constitutive pStat5 (doxycycline): result in words
# Source text: The doxycycline-inducible dual-colour TRMPVIR (TRE-dsRed-miR30/shRNA-PGK-Venus-IRES-rtTA3) retroviral vector[84] was kindly given by R. A. Dickins and was modified by replacing the dsRed-miR30/shRNA sequence by a T2A self-cleaving peptide[85] fusioned with the mCherry fluorescent protein (from TRIPZ, Addgene) inserted into the BamHI and EcoRI sites of the plasmid downstream of the TRE promoter to generate the TxTCPVIR (TRE-gene-T2A-mCherry-PGK-Venus-IRES-rtTA3) retroviral vector. Using standard cloning techniques, we inserted the full-length sequence of Stat5-CA from the pMig-R1 construct into the TxTCPVIR vector to generate the TxTCPVIR-Stat5-CA construct. All subcloned constructs were verified by DNA sequencing (Micromon, Monash University, Australia). Detailed cloning strategies, primers sequences and vectors are available on request.
# Ba/F3 cells (kindly provided by a person from The Walter and Eliza Hall Institute of Medical Research) were infected with pMIG-R1/Il7r retroviral supernatants produced in 293T cells, and transduced cells were sorted with a BD Influx (BD Australia) and selected by culture in medium supplemented with 5 ng/mL rmIL-7 (#217-17, Pepro Tech, Rocky Hill NJ, USA) for 7 days. Ba/F3 cells stably expressing Il7r (Ba/F3-IL7R) were infected with TxTCPVIR-Stat5-CA retroviral supernatants produced in 293T. Cell sorting was performed with a BD Influx and transduced cells were treated with doxycycline for 48 h to induce the expression of the Stat5-CA-T2A-mCherry fusion protein.
# Flow cytometry analyses were performed as previously described[10],[86] on single-cell suspensions stained using BD Pharmingen antibodies (BD Australia, North Ryde NSW, Australia) against mouse CD4 (RM4-5), CD8 (53-6.7), CD25 (PC61.5), CD44 (IM7), CD45.1 (A20), CD45.2 (104), Thy1.2 (53-2.1; #561616), TCRβ (H57-597), CD117 (ACK45), CD135 (A2F10.1), CD150 (TC15-12F12.2; #562373), B220 (RA3-6B2; #563708), CD3 (145-2C11; #563004), CD19 (ID3; #557655), Gr-1 (RB6-8C5; #563299 and #565033), CD11b (M1/70; #563015 and #560455), Ter119 (Ter119; #565523 and #557909), Sca-1 (D7; #558160) and an eBioscience antibody (eBioscience, Invitrogen) against mouse NOTCH1 (22E5). DN3 populations and IL-7R were stained using BioLegend antibodies (Australian Biosearch, Balcatta WA, Australia) against mouse CD28 (E18) and CD127 (A7R34), respectively. Apoptosis was measured using an antibody against AnnexinV (#556420, BD Australia) and the […] Sytox Blue (BD Australia) following the manufacturer’s protocol.
# [2] = tested on: AML01-307 and AML18 patient-derived xenografts; experiment: Survival (Kaplan-Meier) and leukemia growth delay in AML01-307 and AML18 xenograft recipients; assay type: in vivo, human; conditions: PDX AML01-307
# Protocol: Patient-derived xenograft models were established as previously described[97],[98]. All experiments were pre-approved by the Human Research Ethics Committee of the University of New South Wales (UNSW), the UNSW Animal Care and Ethics Committee, the Alfred Health Human Ethics Committee and the AMREP Animal Ethics Committee. For transplantation assays, 10^6 splenocytes harvested from successfully engrafted primary human ETP-ALL or T-ALL xenografts were injected into nonobese diabetic/severe combined immunodeficient (NOD.Cg-Prkdc^scid, also termed NOD/SCID) or NOD/SCID/Il2rg^tm1wjl/SzJ (NSG) mice[99]. Moreover, 1.5 × 10^6 cells splenocytes harvested from successfully engrafted patient-derived AML xenografts were injected into nonobese diabetic/severe immunodeficient (NOD.Cg-Rag1^tm1MomIl2rg^tm1wjl/SzJ, also termed NRG) mice expressing human IL-3, human GM-CSF and human SCF from the SGM3 triple transgene (NRGS)[100]. Engraftment into recipients was monitored by FACS analysis of peripheral blood as previously described. […] Both males and females were used. […] Kaplan–Meier survival and statistical analyses were performed using GraphPad Prism. 6.0 software (GraphPad Software, Inc.). […]
Structure (SMILES),Absolute numbers DN3a cells (Lmo2^Tg DN3a thymocytes),"Survival (%) over survival at day 0, reported as 100% ([1]; +IL-7 -DOX, 0 h)","Survival (%) over survival at day 0, reported as 100% ([1]; +IL-7 -DOX, 24 h)","Survival (%) over survival at day 0, reported as 100% ([1]; +IL-7 -DOX, 72 h)","Survival (%) over survival at day 0, reported as 100% ([1]; +IL-7 -DOX, 96 h)","Survival (%) over survival at day 0, reported as 100% ([1]; -IL-7 +DOX, 0 h)","Survival (%) over survival at day 0, reported as 100% ([1]; -IL-7 +DOX, 24 h)","Survival (%) over survival at day 0, reported as 100% ([1]; -IL-7 +DOX, 48 h)","Survival (%) over survival at day 0, reported as 100% ([1]; -IL-7 +DOX, 72 h)","Survival (%) over survival at day 0, reported as 100% ([1]; -IL-7 +DOX, 96 h)","Survival (%) over survival at day 0, reported as 100% ([1]; -IL-7 +DOX, 120 h)",sensitivity of Ba/F3-IL7R^Stat5-CA cells with constitutive pStat5 (doxycycline) [1],Time to leukemia [2]
"C[C@H](NC(=O)Cc1cc(F)cc(F)c1)C(=O)N[C@H](C(=O)OC(C)(C)C)c1ccccc1 [DAPT, N-[N-(3,5-Difluorophenacetyl)-L-alanyl]-S-phenylglycine t-butyl ester]",26800 and 17800 and 27000 and 25800 and 24600,–,–,–,–,–,–,–,–,–,–,–,–
"CCCCCCCCNC(=O)C(C#N)=Cc1cn(CCCN(C)C)c2ccccc12 [Dynole 34-2, 2-Cyano-N-octyl-3-(1-(3-dimethylaminopropyl)-1H-indol-3-yl)-acrylamide]",28200 and 18800 and 27200 and 23300 and 23200,100.02% and 100.26% and 101.92% and 100.41% and 100.83%,43.12% and 51.68% and 50.50% and 59.30% and 47.40% and 40.60%,14.22% and 14.73% and 23.20% and 19.38% and 17.76% and 14.96%,9.23% and 10.77% and 10.13% and 6.51% and 4.52% and 2.59%,100.62% and 100.47% and 99.53% and 102.59% and 101.73% and 102.89%,90.53% and 91.07% and 101.15% and 104.21% and 101.37% and 100.26%,94.10% and 95.40% and 97.40% and 99.30% and 95.90%,93.90% and 97.20% and 90.70% and 94.80% and 93.20% and 97.10%,93.40% and 86.60% and 95.50% and 96.20% and 87.10% and 90.40%,91.10% and 96.40% and 90.00% and 90.90% and 93.10% and 83.00%,resistant,7 weeks and 8.71 weeks and 8.57 weeks and 7.57 weeks and 8.43 weeks
N#CC[C@H](C1CCCC1)n1cc(-c2ncnc3[nH]ccc23)cn1 [Ruxolitinib],–,101.66% and 101.91% and 100.26% and 101.92% and 100.41% and 100.83%,71.50% and 70.41% and 55.25% and 49.40% and 37.10% and 63.11%,–,–,100.45% and 99.83% and 99.53% and 102.59% and 101.73% and 102.89%,85.97% and 82.57% and 104.88% and 98.10% and 101.20% and 101.43%,97.70% and 95.00% and 95.90% and 97.50% and 97.30% and 99.10%,94.40% and 93.30% and 85.80% and 83.20% and 99.40% and 84.90%,93.30% and 85.80% and 83.20% and 99.40%,92.90% and 90.20% and 86.50% and 89.30% and 78.60% and 92.10%,resistant,–
